In test [1] the target is Ubiquitin-conjugating enzyme E2 N/Ubiquitin-conjugating enzyme E2 variant 1 (Homo sapiens) (UniProt Q13404+P61088). The test can be described thus: (§1) Inhibition of human Ubc13-Uev1A interaction expressed in Escherichia BL21 after 15 mins by ELISA.
Test [2] concerns the target Ubiquitin-conjugating enzyme E2 N/Ubiquitin-conjugating enzyme E2 variant 1 (Homo sapiens, UniProt P61088+Q13404). Described as §1.
Test [3] concerns the target T1, Ubiquitin-conjugating enzyme E2 N (Homo sapiens) (UniProt P61088).
T1 sequence (whole entry): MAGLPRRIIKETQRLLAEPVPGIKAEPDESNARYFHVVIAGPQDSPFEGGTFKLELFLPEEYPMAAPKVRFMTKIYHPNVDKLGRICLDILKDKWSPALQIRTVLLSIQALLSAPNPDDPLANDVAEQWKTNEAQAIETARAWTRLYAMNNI
Kind of test: Inhibition of Ubc13-[…] interaction by ELISA.

From ChEMBL document CHEMBL1152207, “Leucettamol A: a new inhibitor of Ubc13-Uev1A interaction isolated from a marine sponge, Leucetta aff. microrhaphis” (Bioorg Med Chem Lett, 2008) come the findings set out here.

The source made the active and inactive calls. The rule behind the calls is not given here.

On to `CC(=O)N[C@H](C)[C@H](C/C=C\C/C=C\C/C=C\C/C=C\C/C=C\C/C=C\CCCCCC[C@H](OC(C)=O)[C@@H](C)NC(C)=O)OC(C)=O`, for which the result in test [1] was inactive.
Take `C[C@@H](N)[C@@H](O)CCCCCCCCCCCCCCCCCCCCCCCC[C@H](O)[C@@H](C)N`: in test [2], the IC50 (as a rule, the concentration that gives 50% inhibition) was 8.25 µM.
Molecule `C[C@@H](N)[C@@H](O)C/C=C\C/C=C\C/C=C\C/C=C\C/C=C\C/C=C\CCCCCC[C@H](O)[C@@H](C)N` [LEUCETTAMOL A] showed an IC50 in test [2] of 106 µM. In test [3], the outcome was inactive.
